Measured values as given in US7417062B2, “Substituted arylamides” (ChemoCentryx, Inc., priority 2004, dated 2008).

Target: T1, CCXCKR2 receptor (Homo sapiens, UniProt P25106)
T1 construct: host or cells: MCF-7 (endogenous) and/or MDA-MB-435S transfected with hRDC1 in pcDNA3.1(+)
Test: Displacement of 125I-labeled SDF-1 from the CCXCKR2 receptor (radioligand binding, determination of IC50 values)
Conditions: MCF-7 and/or MDA-MB-435S cells expressing CCXCKR2; 125I SDF-1; 3 hr at 4° C.; read-out: Activity (ability to displace 125I SDF-1 from CCXCKR2)
Outline: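 Whole-cell filtration binding on MCF-7 and/or MDA-MB-435S cells stably transfected with human CCXCKR2, with compounds at multiple concentrations competing with 125I-SDF-1. Incubation was 3 hr at 4° C in HEPES buffer (CaCl2, MgCl2, 0.2% BSA, pH 7.1). Bound radioactivity was collected on PEI-treated GF/B filters and counted by scintillation to give IC50.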

T1 sequence (P25106 whole entry): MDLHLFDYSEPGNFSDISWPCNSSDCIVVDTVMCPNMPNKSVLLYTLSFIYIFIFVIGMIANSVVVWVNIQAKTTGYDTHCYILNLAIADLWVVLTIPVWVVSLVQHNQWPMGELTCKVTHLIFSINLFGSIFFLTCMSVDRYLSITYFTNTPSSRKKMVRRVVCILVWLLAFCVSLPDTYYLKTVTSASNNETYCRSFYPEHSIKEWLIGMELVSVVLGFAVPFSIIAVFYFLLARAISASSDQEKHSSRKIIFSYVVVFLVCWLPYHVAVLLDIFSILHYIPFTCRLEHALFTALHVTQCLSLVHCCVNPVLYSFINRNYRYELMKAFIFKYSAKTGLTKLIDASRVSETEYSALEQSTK

Structure (SMILES)	IC50
COc1cc(C(=O)N(Cc2cc3ccccc3nn2)C[C@@H]2CCCN2C2CCC2)cc2c1OC(C)(C)O2 [Example 74, 7-Methoxy-2,2-dimethyl-benzo[1,3]dioxole-5-carboxylic acid cinnolin-3-ylmethyl-((S)-1-cyclobutyl-pyrrolidin-2-ylmethyl)-amide]	< 2000 nM
COc1cc(C(=O)N(Cc2ccc3ccccc3[n+]2[O-])C[C@@H]2CCCN2C2CCC2)cc2c1OC(C)(C)O2 [Example 69, 7-Methoxy-2,2-dimethyl-benzo[1,3]dioxole-5-carboxylic acid ((S)-1-cyclobutyl-pyrrolidin-2-ylmethyl)-(1-oxy-quinolin-2-ylmethyl)-amide]	< 10000 nM
COc1cc(C(=O)N(Cc2cnc3ccccc3n2)C[C@@H]2CCCN2C2CCC2)cc2c1OC(C)(C)O2 [Example 67, 7-Methoxy-2,2-dimethyl-benzo[1,3]dioxole-5-carboxylic acid ((S)-1-cyclobutyl-pyrrolidin-2-ylmethyl)-quinoxalin-2-ylmethyl-amide]	< 2000 nM
COc1cc(C(=O)N(CCCN2CCCCC2C)c2ccc3ccccc3c2)cc(OC)c1OC (centres unmarked) [Example 20, 3,4,5-Trimethoxy-N-[3-(2-methyl-piperidin-1-yl)-propyl]-N-naphthalen-2-yl-benzamide]	< 2000 nM
COc1ccc(C(=O)N(C[C@@H]2CCCN2)c2cccc(-c3ccccc3)c2)cc1OC [Example 21]	< 2000 nM
COc1cc(C(=O)N(Cc2ccc3ccccc3n2)C[C@@H]2CCCN2CC2CNC2)cc2c1OC(C)(C)O2 [Example 44, 7-Methoxy-2,2-dimethyl-benzo[1,3]dioxole-5-carboxylic acid ((S)-1-azetidin-3-ylmethyl-pyrrolidin-2-ylmethyl)-quinolin-2-ylmethyl-amide]	< 500 nM
COc1cc(C(=O)N(Cc2cc3ccccc3cn2)C[C@@H]2CCCN2C2CCC2)cc2c1OC(C)(C)O2 [Example 62, 7-Methoxy-2,2-dimethyl-benzo[1,3]dioxole-5-carboxylic acid ((S)-1-cyclobutyl-pyrrolidin-2-ylmethyl)-isoquinolin-3-ylmethyl-amide]	< 500 nM
COc1ccc(C(=O)N(C[C@@H]2CCCN2CC2CC2)c2cccc(-c3ccc(F)c(Cl)c3)c2)cc1OC [Example 38, N-(3′-Chloro-4′-fluoro-biphenyl-3-yl)-(S)—N-(1-cyclopropylmethyl-pyrrolidin-2-ylmethyl)-3,4-dimethoxy-benzamide]	< 10000 nM
COc1cc(C(=O)N(C[C@@H]2C[C@@H]3CCCC[C@@H]3N2)C(C)c2cc3ccccc3cn2)cc2c1OC(C)(C)O2 (stereo partly drawn) [Example 66, 7-Methoxy-2,2-dimethyl-benzo[1,3]dioxole-5-carboxylic acid (1-isoquinolin-3-yl-ethyl)-[(2S,3aS,7aS)-1-(octahydro-indol-2-yl)methyl]-amide]	< 500 nM
COc1cc(C(=O)N(Cc2cnc3ccccc3c2)C[C@@H]2C[C@@H]3CCCC[C@@H]3N2)cc2c1OC(C)(C)O2	< 2000 nM
COc1cc(C(=O)N(Cc2csc(-c3ccccc3)n2)C[C@@H]2CCCN2C)cc2c1OC(C)(C)O2 [Example 56, 7-Methoxy-2,2-dimethyl-benzo[1,3]dioxole-5-carboxylic acid ((S)-1-methyl-pyrrolidin-2-ylmethyl)-(2-phenyl-thiazol-4-ylmethyl)-amide]	< 500 nM

Now from value to compound:

IC50	Structure (SMILES)
< 500 nM	COc1cc(C(=O)N(Cc2ccc3ccccc3n2)C[C@@H]2CCCN2C2CCC2)cc2c1OC(C)(C)O2 [Example 43, 7-Methoxy-2,2-dimethyl-benzo[1,3]dioxole-5-carboxylic acid ((S)-1-cyclobutyl-pyrrolidin-2-ylmethyl)-quinolin-2-ylmethyl-amide]
< 500 nM	COc1cc(C(=O)N(CCC2CCCN2C)Cc2cc3ccccc3n2C)cc(OC)c1OC (centres unmarked)
< 500 nM	COc1cc(C(=O)N(Cc2ccc3cc(F)ccc3n2)C[C@@H]2C[C@@H]3CCCC[C@@H]3N2)cc2c1OC(C)(C)O2 [Example 72, 7-Methoxy-2,2-dimethyl-benzo[1,3]dioxole-5-carboxylic acid (6-fluoro-quinolin-2-ylmethyl)-[(2S,3aS,7aS)-1-(octahydro-indol-2-yl)methyl]-amide]
< 500 nM	COc1cc(C(=O)N(C[C@@H]2C[C@@H]3CCCC[C@@H]3N2)C(C)c2ccc3ccccc3n2)cc2c1OC(C)(C)O2 (stereo partly drawn) [Example 71, 7-Methoxy-2,2-dimethyl-benzo[1,3]dioxole-5-carboxylic acid [(2S,3aS,7aS)-1-(octahydro-indol-2-yl)methyl]-(1-quinolin-2-yl-ethyl)-amide]
< 500 nM	COc1cc(C(=O)N(Cc2ccc3cccnc3n2)C[C@@H]2C[C@@H]3CCCC[C@@H]3N2)cc2c1OC(C)(C)O2 [Example 42, 7-Methoxy-2,2-dimethyl-benzo[1,3]dioxole-5-carboxylic acid [1,8]naphthyridin-2-ylmethyl-[(2S,3aS,7aS)-1-(octahydro-indol-2-yl)methyl]-amide]
< 500 nM	COc1cc(C(=O)N(Cc2ccc3ccccc3n2)CC2CN(C)C2)cc2c1OC(C)(C)O2 [Example 49, 7-Methoxy-2,2-dimethyl-benzo[1,3]dioxole-5-carboxylic acid (1-methyl-azetidin-3-ylmethyl)-quinolin-2-ylmethyl-amide]
